# Laboratory results as given in patent publication EP4721758A1, “NOVEL MEDICINE FOR TREATING OSTEOSARCOMA” (Japanese Foundation For Cancer Research, priority 2023, dated 2024).
# Columns and labels:
# Mcl-1 [1] = molecular target: T1, Mcl-1 (Homo sapiens, UniProt Q07820); details: cited from earlier work
# osteosarcoma cells [2] = test: Cell viability, combined use of Mcl-1 inhibitor and Bcl-xL inhibitor; type: cell-based
# Text: In this example, AZD5991 or MIK665 was used as an Mcl-1 inhibitor, and A-1331852 was used as a Bcl-xL inhibitor.
# G-292 cells = test: Cell viability, BH3 mimetic drug sensitivity; type: cell-based, human; details: cells with BCL2L1 amplification, Fig. 4-1
# Method: (§1) Specifically, four types of osteosarcoma cells (i.e., NOS-10 cells, Sa-xeno-147 cells, G-292 cells, and Sa-xeno-184 cells) were treated with six types of BH3 mimetics (i.e., obatoclax, navitoclax, venetoclax, A-1331852, AZD5991, and MIK665), and the cell viability of the osteosarcoma cells was measured.
# NOS-10 cells [3] = test: Cell viability (CellTiter-Glo); type: cell-based, human; details: for IC50 value / growth inhibitory effect: IGF-1R inhibitor in combination with Mcl-1 inhibitors such as obatoclax, AZD5991, and MIK665, Fig. 5-1; for IC50 values: in the presence of 40 nM obatoclax, Fig. 4-4
# Method: In this example, the drug sensitivity of MIK665, an Mcl-1 inhibitor, was evaluated in NOS-10 cells. Various concentrations (i.e., 0, 1, 3, 10, 30, 100, 300, 1000, 3000, 10000, 30000 nM) of MIK665 (TargetMol) were administered, and cell viability was measured using CellTiter-Glo assay reagent 72 hours after drug treatment. As a control, osteosarcoma cells MG-63 cells, without amplification of the copy number of MCL1, were used. Data are shown as MG-63 mean ± SD (n = 3).
# as §1
# Meanwhile, the combined effect of AZD5991 and 3 µ(micro)M Navitoclax on cell viability of NOS-10 cells was examined. Cell viability was measured using CellTiter-Glo assay reagent 72 hours after drug treatment. Data are shown as mean ± SD (n = 3).
# (§2) Specifically, the present inventors investigated the combined effects of 40 nM obatoclax with DOX (Fig. 4-4(E), Fig. 4-5(A)), with CDDP (Fig. 4-4(F), Fig. 4-5(B)), and with MTX (Fig. 4-4(G), Fig. 4-5(C)) on cell viability in NOS-10 cells and Sa-xeno-147 cells. Cell viability was measured for each cell 72 hours after each drug treatment using CellTiter-Glo assay reagent. All data are shown as mean ± SD (n = 3). IC50 values were calculated and the data were graphed using GraphPad Prism.
# To identify suitable combination partners of Mcl-1 inhibitors such as obatoclax for osteosarcoma treatment, further drug screening was performed using an in-house library of inhibitors in the presence of obatoclax in osteosarcoma cells. Specifically, the effect of combination of 35 nM obatoclax with an inhibitor out of 94 molecular targeted drugs in the library on cell viability of NOS-10 cells was examined. Cell viability was measured using CellTiter-Glo assay reagent 72 hours after the cells were treated with each combination of drugs. All data are shown as mean ± SD (n = 3). GraphPad Prism was used to calculate IC50 values and graph the data.
# Sa-xeno-184 cells = test: Cell viability, BH3 mimetic drug sensitivity; type: cell-based, human; details: cells with MCL1 amplification, Fig. 4-1
# Method: as §1
# Sa-xeno-147 cells = test: Cell viability (CellTiter-Glo); type: cell-based, human; details: for cell viability: BH3 mimetic drug sensitivity, Fig. 4-1; for IC50 values: in the presence of 40 nM obatoclax, 72 hours, Fig. 4-5
# Method: as §1, §2
# Mcl-1 [4] = molecular target: T1, Mcl-1; details: cited from earlier work; remark: listed apart in the source
# BCL-xL = BCL-xL (Homo sapiens, UniProt Q07817); details: cited from earlier work
# BCL-xL, sequence (Q07817 whole entry): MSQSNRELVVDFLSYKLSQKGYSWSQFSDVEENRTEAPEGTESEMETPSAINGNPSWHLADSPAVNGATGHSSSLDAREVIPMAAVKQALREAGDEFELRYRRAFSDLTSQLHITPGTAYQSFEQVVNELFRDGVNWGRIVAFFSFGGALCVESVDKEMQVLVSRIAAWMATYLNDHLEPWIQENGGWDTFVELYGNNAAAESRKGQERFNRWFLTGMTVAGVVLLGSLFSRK
# NOS-10 cells [5] = test: Mouse xenograft model, tumor volume; type: in vivo, SCID beige mice; details: obatoclax 5 mg/kg, OSI906 25 mg/kg, orally three times a week; MCL1-amplified xenograft; Fig. 6-2 (B)
# Method: Using obatoclax or AZD5991 as an Mcl-1 inhibitor, the present inventors used mouse xenograft models of osteosarcoma with MCL1-amplified osteosarcoma (NOS-10 cells) and without MCL1-amplified osteosarcoma (Sa-xeno-147 cells) to determine the efficacy of the combination of obatoclax or AZD5991 with OSI906. To prevent side effects such as weight loss, the drugs were administered three times a week at relatively low concentrations (experimental schemes are shown in Figures 5A and 5D). The changes in tumor volume of NOS-10 cells and Sa-xeno-147 cells by treatment of drugs was examined as follows. NOS-10 cells or Sa-xeno-147 cells were subcutaneously inoculated into immunodeficient SCID beige mice (CB17.Cg-PrkdcscidLystbg-J/CrlCrlj, Charles River Laboratories, Inc.) (5-6×10^6 cells/mouse or 1×10^6 cells/mouse) and orally treated three times a week with vehicle (30% PEG400, 0.5% Tween80, 5% propylene glycol in water), with obatoclax (5 mg/kg), with OSI906 (25 mg/kg), or with obatoclax + OSI906 (5 mg/kg and 25 mg/kg, respectively). […] All data are shown as mean ± SD (n = 4, n = 5, or n = 6). *p < 0.05 and **p < 0.01 are determined using the Mann-Whitney U test.
# BCL-2 = BCL-2 (Homo sapiens, UniProt P10415); details: cited from earlier work
# BCL-2, sequence (P10415 whole entry): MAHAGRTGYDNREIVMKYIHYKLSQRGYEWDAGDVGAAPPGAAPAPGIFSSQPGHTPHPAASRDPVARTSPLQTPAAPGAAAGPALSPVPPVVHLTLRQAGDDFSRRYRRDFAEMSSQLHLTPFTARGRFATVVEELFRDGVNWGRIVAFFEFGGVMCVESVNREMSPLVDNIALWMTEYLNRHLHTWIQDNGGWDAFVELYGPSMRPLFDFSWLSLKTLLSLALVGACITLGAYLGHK
# topoisomerase = details: cited from earlier work
# osteosarcoma cells [6] = test: Inhibitor library drug screening, cell viability (CellTiter-Glo); type: cell-based, human; details: nine osteosarcoma cell lines and two PDC, 72 hours, heatmap Fig. 1A
# Method: The nine human osteosarcoma cell lines (MG-63 cells, NY cells, HOS cells, HuO9 cells, HuO-3N1 cells, SJSA-1 cells, NOS-1 cells, NOS-10 cells, and G-292 clone A141B1 (G-292) cells) were purchased from the American Type Culture Collection, the RIKEN BioResource Research Center, or the Japanese Collection of Research Bioresources Cell Bank (JCRC) and used at lower passage numbers.
# Specifically, • MG-63 cells, NY cells, and HOS cells were cultured in 96-well plates using MEM (Wako) comprising 10% FBS (CORNING), 1% non-essential amino acid solution (Wako), and 100 µ(micro)g/mL kanamycin (MEIJI), • HuO9 cells, HuO-3N1 cells, SJSA-1 cells, NOS-1 cells, and NOS-10 cells were cultured in 96-well plates using RPMI-1640 medium (Wako) comprising 10% FBS and 100 µ(micro)g/mL kanamycin. • G-292 clone A141B1 (G-292) cells were cultured in 96-well plate using McCoy's 5a medium comprising 10% FBS, • Sa-xeno-147 and Sa-xeno-184 cell lines were developed from patient-derived xenograft tumors and were cultured in collagen-coated dishes with RPMI 1640/Ham's F12 (1:1) medium comprising 15% FBS, 20 mM HEPES, and antibiotic-antimycotic solution (Sigma-Aldrich). Cells were cultured at 37°C and 5% CO2.
# Cells were seeded in triplicate in 96-well plates (Greiner) or type I collagen-coated plates (IWAKI) at a density of 2000 cells/well and cultured for at least 24 h. After 72 hours of incubation with any of the 96 compounds of the library of the inhibitors, cells were incubated with CellTiter-Glo reagent (Promega) for 2 minutes on a Titramax 100 plate shaker (Heidolph), and after 10 minutes of equilibration, cell viability assays of each osteosarcoma cell were performed by measuring luminescence using a Tristar LB941 multimode microplate reader (Berthold Technologies). The cell viability was calculated as a ratio of the DMSO control to evaluate their effects on osteosarcoma cell proliferation (n=2).
# osteosarcoma cell lines = test: IC50 of obatoclax, cell viability (CellTiter-Glo); type: cell-based; details: Homo sapiens; 11 osteosarcoma cell lines; 72 hours; compared with Cmax; Fig. 4-3
# Method: In this example, G-292 cells, NY cells, NOS-1 cells, NOS-10 cells, HuO9 cells, SJSA-1 cells, MG-63 cells, HuO-3N1 cells, HOS cells, Sa-xeno-147 cells, and Sa-xeno-184 cells were used as osteosarcoma cell lines, and LC-2/ad cells, H2228 cells, H226 cells, H3122 cells, and A549 cells were used as lung adenocarcinoma cell lines.
# After 72 hours from treatment with obatoclax, the cell viability of each cell was measured using the CellTiter-Glo Assay reagent. The IC50 value was calculated using Prism software.
# [7] = serum; read-out: maximum concentration of obatoclax in serum (Cmax); cited from earlier work
# [8] = BH3 mimetic drug sensitivity, cells with MCL1 amplification, Fig. 4-1
# T1 sequence (Q07820 whole entry): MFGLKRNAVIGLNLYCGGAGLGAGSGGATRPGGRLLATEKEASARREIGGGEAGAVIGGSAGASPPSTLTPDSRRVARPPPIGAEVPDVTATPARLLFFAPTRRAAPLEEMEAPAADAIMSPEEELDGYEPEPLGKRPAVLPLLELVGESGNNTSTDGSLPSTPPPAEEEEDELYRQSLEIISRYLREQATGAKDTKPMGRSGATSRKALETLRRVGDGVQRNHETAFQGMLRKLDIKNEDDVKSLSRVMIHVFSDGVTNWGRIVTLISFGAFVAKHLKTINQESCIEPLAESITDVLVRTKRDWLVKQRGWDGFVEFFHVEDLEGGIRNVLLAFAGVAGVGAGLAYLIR
molecule,measurement,setting,value
Cc1nn(C)c(COc2ccc(N3CCN(S(=O)(=O)N(C)C)CC3)cc2)c1-c1cccc2c(CCCOc3cccc4ccccc34)c(C(=O)O)n(CCN3CCOCC3)c12 [A-1210477],selectivity than other Bcl-2 family members,Mcl-1 [1],≥ 100 fold
Cc1c(-c2ccc(N3CCc4cccc(C(=O)Nc5nc6ccccc6s5)c4C3)nc2C(=O)O)cnn1CC12CC3CC(CC(C3)C1)C2 [A-1331852],cell viability,"osteosarcoma cells [2]; A-1331852 alone, Fig. 3-5, Fig. 3-6",almost no effect on reduction of cell viability
same,cell viability,"osteosarcoma cells [2]; A-1331852 in combination with AZD5991, Fig. 3-5",strong effect on reduction of cell viability
same,cell viability,"osteosarcoma cells [2]; A-1331852 in combination with MIK665, Fig. 3-6",strong effect on reduction of cell viability
same,cell viability,G-292 cells,most effective in reducing cell viability
COc1cc(N2CCC(N)CC2)ccc1Nc1ncc(Cl)c(-c2c[nH]c3ccccc23)n1 [AZD3463],IC50 value,NOS-10 cells [3]; 72 hours,significantly reduced
same,growth inhibitory effect,NOS-10 cells [3]; 72 hours,enhanced
Cc1c2c(nn1C)CSCc1cc(n(C)n1)CSc1cc(c3ccccc3c1)OCCCc1c(C(=O)O)n(C)c3c-2c(Cl)ccc13 [AZD5991],cell viability,"NOS-10 cells [3]; AZD5991 combined with 3 µM Navitoclax, 72 hours, Fig. 4-2",increased the inhibitory effect on cell viability
same,cell viability,NOS-10 cells [3]; [8],reduce cell viability at relatively low concentrations
same,cell viability,Sa-xeno-184 cells,reduce cell viability at relatively low concentrations
same,cell viability,Sa-xeno-147 cells,moderate inhibitory effects
"[NH2][Pt]([NH2])([Cl])[Cl] [CDDP, cisplatin]",IC50 values,NOS-10 cells [3]; 72 hours,not decreased
same,IC50 values,Sa-xeno-147 cells,not decreased
"COc1cccc2c1C(=O)c1c(O)c3c(c(O)c1C2=O)C[C@@](O)(C(=O)CO)C[C@@H]3O[C@H]1C[C@H](N)[C@H](O)[C@H](C)O1 [DOX, Doxorubicin]",IC50 values,NOS-10 cells [3]; 72 hours,not decreased
same,IC50 values,Sa-xeno-147 cells,not decreased
"CN(Cc1cnc2nc(N)nc(N)c2n1)c1ccc(C(=O)N[C@@H](CCC(=O)O)C(=O)O)cc1 [MTX, methotrexate]",IC50 values,NOS-10 cells [3]; 72 hours,not decreased
same,IC50 values,Sa-xeno-147 cells,not decreased
O=C(c1ccccc1O)c1[nH]c(Cl)c(Cl)c1-n1c(C(=O)c2ccccc2O)cc(Cl)c1Cl [Marinopyrrole A],binding to Mcl-1,Mcl-1 [4],bind to Mcl-1
same,binding to BCL-XL,BCL-xL,not to Bcl-XL
C[C@]1(O)C[C@@H](c2nc(-c3ccc4ccc(-c5ccccc5)nc4c3)c3c(N)nccn32)C1 [OSI906],tumor growth,NOS-10 cells [5],little effect on tumor growth
same,IC50 value,NOS-10 cells [3]; 72 hours,significantly reduced
same,growth inhibitory effect,NOS-10 cells [3]; 72 hours,enhanced
Cc1c(-c2c(-c3ccc(F)o3)sc3ncnc(O[C@H](Cc4ccccc4OCc4ccnn4CC(F)(F)F)C(=O)O)c23)ccc(OCCN2CCN(C)CC2)c1Cl [S63845],binding to BCL-2,BCL-2,not to bind
same,binding to BCL-XL,BCL-xL,not to bind
CCc1c2c(nc3ccc(O)cc13)-c1cc3c(c(=O)n1C2)COC(=O)[C@]3(O)CC [SN-38],activity relative to irinotecan,topoisomerase,1000 times
same,osteosarcoma cell proliferation (cell viability),osteosarcoma cells [6],extensive inhibition of osteosarcoma cell proliferation
Cc1cc(OCCCc2c3n(c4c(-c5c(C)nn(C)c5C)c(Cl)ccc24)[C@H](C)CN(c2cn(C)c4ccc(C(=O)O)cc24)C3=O)cc(C)c1Cl [VU661013],inhibition of BCL-2,BCL-2,does not significantly inhibit
same,inhibition of BCL-xL,BCL-xL,does not significantly inhibit
CC(C)C[C@H](NC(=O)[C@H](Cc1ccccc1)NC(=O)c1cnccn1)B(O)O [bortezomib],osteosarcoma cell proliferation (cell viability),osteosarcoma cells [6],extensive inhibition of osteosarcoma cell proliferation
CC(C)C[C@H](NC(=O)[C@H](CCc1ccccc1)NC(=O)CN1CCOCC1)C(=O)N[C@@H](Cc1ccccc1)C(=O)N[C@@H](CC(C)C)C(=O)[C@@]1(C)CO1 [carfilzomib],osteosarcoma cell proliferation (cell viability),osteosarcoma cells [6],extensive inhibition of osteosarcoma cell proliferation
COC1=CC(c2cc3ccccc3[nH]2)=N/C1=C\c1[nH]c(C)cc1C [obatoclax],IC50,osteosarcoma cell lines,< 176 nM
same,Cmax,[7],176 nM
MIK665,cell viability,NOS-10 cells [3]; [8],reduce cell viability at relatively low concentrations
same,cell viability,"NOS-10 cells [3]; low concentrations of MIK665 (range 0-30000 nM), 72 hours, compared to MG-63 cells without MCL1 amplification, Fig. 2",reduced cell viability
same,cell viability,Sa-xeno-184 cells,reduce cell viability at relatively low concentrations
same,cell viability,Sa-xeno-147 cells,moderate inhibitory effects
